From patent publication US9180129B2, “Combination of lapatinib and trametinib” (NOVARTIS AG, priority 2010, dated 2015)
Like-named read-outs stand apart in the source and are kept apart here.

Columns and labels:
[1] = system: NCI-H508; assay: Cell growth inhibition assay, NCI-H508 (colorectal); format: cell-based; details: Homo sapiens, 72 h, 3 days, read-out: Single agent IC50 (μM), mean ± STD
Protocol: (§1) All lines were kept in a humidified incubator at 37° C. in 95% air and 5% CO2. JIMT-1 is a cell line established from a tumor of a patient with trastuzumab-resistant breast cancer (Tanner et al, Mol Cancer Ther 2004; 3:1585-92).
(§2) All cells were cultured for a minimum of 72 hours prior to cell plating. Cells were seeded in a 96-well tissue culture plate (NUNC 136102) of RPMI media containing 10% FBS for all cell lines at 2,000 cells per well except KPL4, which was plated in DMEM containing 5% FBS at 500 cells per well. […] Cells were incubated in the presence of compounds for 3 days. ATP levels were determined by adding Cell Titer Glo® reagent (Promega) according to the manufacturer's protocol. Briefly, Cell Titer Glo® reagent was added to each plate, incubated for 20 minutes then the luminescent signal was read on the SpectraMax L plate reader with a 0.5 sec integration time.
(§3) Inhibition of cell growth was estimated after treatment with compound or a combination of compounds for three days and comparing the signal to cells treated with vehicle (DMSO). Cell growth was calculated relative to vehicle (DMSO) treated control wells. […]

[2] = system: 647V; assay: Cell growth inhibition assay, 647V (bladder); format: cell-based; details: Homo sapiens, 72 h, 3 days, read-out: Single agent IC50 (μM), mean ± STD
Protocol: as §1, §2, §3

[3] = system: three pancreatic cancer cell lines; assay: Cell growth inhibition assay, pancreatic lines; format: cell-based, Human; details: HPAF-11, Capan-1 and SUIT2
Protocol: as §1, §2, §3

[4] = system: SKMEL5; assay: Cell growth inhibition assay, SKMEL5 (melanoma); format: cell-based, Human; details: 3 days, read-out: Single agent IC50 (μM), mean ± STD
Protocol: as §1, §2
(§4) Inhibition of cell growth was estimated after treatment with compound or a combination of compounds for three days and comparing the signal to cells treated with vehicle (DMSO). Cell growth was calculated relative to vehicle (DMSO) treated control wells. A concentration of the compound that inhibits 50% of control cell growth (IC50) was interpolated using nonlinear regression with the equation, y=(A+(B−A)/(1+(C/x)^D)))), where A is the minimum response (ymin), B is the maximum response (ymax), C is the inflection point of the curve (EC50) and D is the Hill coefficient. […]

[5] = system: BT474-J4; assay: Cell growth inhibition assay, BT474-J4 (breast HER2+, acquired resistance to Compound A); format: cell-based; details: Homo sapiens, 72 h, 3 days, read-out: Single agent IC50 (μM), mean ± STD
Protocol: as §1, §2, §3

[6] = system: SW780; assay: Cell growth inhibition assay, SW780 (bladder); format: cell-based; details: Homo sapiens, 72 h, 3 days, read-out: Single agent IC50 (μM), mean ± STD
Protocol: as §1, §2, §3

[7] = system: BT474; assay: Cell apoptosis assay, DNA fragmentation, BT474; format: cell-based, Human; details: 48 hours, Roche Cell Death ELISA, combination at 2 to 1 molar ratio A:B (FIG. 2B)
Protocol: as §1
(§5) For investigation of the induction of apoptosis, cells were plated at 5,000 cells per well in a 96-well tissue culture plate and allowed to attach for approximately 24 hours. Forty-eight hours after treatment with compounds, levels of apoptosis were estimated using the Roche Cell Death ELISA kit (Cat. No. 11 774 425 001) following the instructions provided by the manufacturer.
(§6) FIG. 1. Dose response curves of cell growth inhibition in HCC1954, MDA-MB-175VII, CHL1 and BFTC-905.

[8] = system: LS174T; assay: Cell growth inhibition assay, LS174T (colorectal); format: cell-based; details: Homo sapiens, 72 h, 3 days, read-out: Single agent IC50 (μM), mean ± STD
Protocol: as §1, §2, §3

[9] = system: T84; assay: Cell growth inhibition assay, T84 (colorectal); format: cell-based; details: Homo sapiens, 72 h, 3 days, read-out: Single agent IC50 (μM), mean ± STD
Protocol: as §1, §2, §3

[10] = system: SW403; assay: Cell growth inhibition assay, SW403 (colorectal); format: cell-based; details: Homo sapiens, SW-403, 72 h, 3 days, read-out: Single agent IC50 (μM), mean ± STD
Protocol: as §1, §2, §3

[11] = system: A375 S2; assay: Cell growth inhibition assay, A375 S2 (melanoma); format: cell-based; details: Homo sapiens, A375-S2, 72 h, 3 days, read-out: Single agent IC50 (μM), mean ± STD
Protocol: as §1, §2, §3

[12] = system: KPL4; assay: Cell growth inhibition assay, KPL4 (breast HER2+); format: cell-based; details: Homo sapiens, KPL4, 72 h, 3 days, read-out: Single agent IC50 (μM), mean ± STD
Protocol: All cells were cultured for a minimum of 72 hours prior to cell plating. […] Cells were incubated in the presence of compounds for 3 days.
Cell growth was calculated relative to vehicle (DMSO) treated control wells.
In general, a CI value <0.9, between 0.9 and 1.1, or >1.1 indicates synergy, additivity and antagonism, respectively. In general, the smaller the CI number, the greater is the strength of synergy.

[13] = system: HCC1954; assay: Cell growth inhibition assay, HCC1954 (breast HER2+); format: cell-based; details: Homo sapiens, 72 h, 3 days, read-out: Single agent IC50 (μM), mean ± STD
Protocol: as §1, §2, §3

[14] = system: CHL1; assay: Cell growth inhibition assay, CHL1 (melanoma); format: cell-based; details: Homo sapiens, CHL-1, 72 h, 3 days, read-out: Single agent IC50 (μM), mean ± STD
Protocol: as §1, §2, §3

[15] = system: NCI-H747; assay: Cell growth inhibition assay, NCI-H747 (colorectal); format: cell-based; details: Homo sapiens, 72 h, 3 days, read-out: Single agent IC50 (μM), mean ± STD
Protocol: as §1, §2, §3

[16] = system: SUIT2; assay: Cell growth inhibition assay, SUIT2 (pancreatic); format: cell-based; details: Homo sapiens, SUIT-2, 72 h, 3 days, read-out: Single agent IC50 (μM), mean ± STD
Protocol: as §1, §2, §3

[17] = system: five colorectal cancer cell lines; assay: Cell growth inhibition assay, colorectal lines; format: cell-based; details: Homo sapiens; span over the five colorectal cancer cell lines of Table 1; read-out: IC50 values, single agent
[18] = system: HPAF-11; assay: Cell growth inhibition assay, HPAF-11 (pancreatic); format: cell-based; details: Homo sapiens, 72 h, 3 days, read-out: Single agent IC50 (μM), mean ± STD
Protocol: as §1, §2, §3

[19] = system: SUM149; assay: Cell growth inhibition assay, SUM149 (breast HER2−); format: cell-based; details: Homo sapiens, SUM149, 72 h, 3 days, read-out: Single agent IC50 (μM), mean ± STD
Protocol: as §1, §2, §3

[20] = system: BFTC-905; assay: Cell growth inhibition assay, BFTC-905 (bladder); format: cell-based; details: Homo sapiens, 72 h, 3 days, read-out: Single agent IC50 (μM), mean ± STD
Protocol: as §1, §2, §3

[21] = system: Capan-1; assay: Cell growth inhibition assay, Capan-1 (pancreatic); format: cell-based; details: Homo sapiens, 72 h, 3 days, read-out: Single agent IC50 (μM), mean ± STD
Protocol: as §1, §2, §3

[22] = system: MDAMB175VII; assay: Cell growth inhibition assay, MDAMB175VII (breast HER2−); format: cell-based; details: Homo sapiens, MDA-MB-175-VII, 72 h, 3 days, read-out: Single agent IC50 (μM), mean ± STD
Protocol: as §1, §2, §3

[23] = system: JimT-1; assay: Cell growth inhibition assay, JimT-1 (breast HER2+, trastuzumab-resistant); format: cell-based, Human; details: for IC50: Homo sapiens, 72 h, JimT-1, 3 days, read-out: Single agent IC50 (μM), mean ± STD; for sensitivity to cell growth inhibition, in words: JIMT-1 HER2+ breast cancer line
Protocol: as §1, §2, §4

[24] = system: MDA-MB-453; assay: Cell growth inhibition assay, MDA-MB-453 (breast HER2+); format: cell-based; details: Homo sapiens, 72 h, 3 days, read-out: Single agent IC50 (μM), mean ± STD
Protocol: as §1, §2, §3

[25] = system: HCC2218; assay: Cell growth inhibition assay, HCC2218 (breast HER2+); format: cell-based; details: Homo sapiens, HCC2218, 72 h, 3 days, read-out: Single agent IC50 (μM), mean ± STD
Protocol: as §1, §2, §3

[26] = system: BT474-J4; assay: Cell apoptosis assay, DNA fragmentation, BT474-J4; format: cell-based, Human; details: 48 hours, Roche Cell Death ELISA, combination at 2 to 1 molar ratio A:B (FIG. 2B)
Protocol: as §1, §5, §6

[27] = system: HCC1419; assay: Cell growth inhibition assay, HCC1419 (breast HER2+); format: cell-based; details: Homo sapiens, HCC1419, 72 h, 3 days, read-out: Single agent IC50 (μM), mean ± STD
Protocol: as §1, §2, §3

[28] = system: AU565; assay: Cell growth inhibition assay, AU565 (breast HER2+); format: cell-based; details: Homo sapiens, AU565, 72 h, 3 days, read-out: Single agent IC50 (μM), mean ± STD
Protocol: as §1, §2, §3

[29] = system: SKBR3; assay: Cell growth inhibition assay, SKBR3 (breast HER2+); format: cell-based; details: Homo sapiens, SK-BR-3, 72 h, 3 days, read-out: Single agent IC50 (μM), mean ± STD
Protocol: as §1, §2, §3

[30] = system: HER2 positive (HER2+) breast tumor lines; assay: Cell growth inhibition assay, text summary over HER2+ breast lines; format: cell-based; details: Homo sapiens; the HER2+ breast cancer lines listed in Table 1; read-out: IC50 as a single agent
Protocol: as §1, §2, §3

[31] = system: BT474; assay: Cell growth inhibition assay, BT474 (breast HER2+); format: cell-based; details: Homo sapiens, BT-474, 72 h, 3 days, read-out: Single agent IC50 (μM), mean ± STD
Protocol: as §1, §2, §3

Compound | IC50 [1] | IC50 [2] | sensitivity as single agents, in words [3] | IC50 ([4]; Homo sapiens, SK-MEL-5, 72 h) | IC50 [5] | IC50 [6] | apoptosis induction determined by DNA fragmentation [7] | IC50 [8] | IC50 [9] | IC50 [10] | IC50 [12] | IC50 [13] | IC50 [14] | IC50 [15] | IC50 [16] | IC50 [17] | IC50 [18] | IC50 [20] | IC50 [21] | IC50 [23] | also measured
CS(=O)(=O)CCNCc1ccc(-c2ccc3ncnc(Nc4ccc(OCc5cccc(F)c5)c(Cl)c4)c3c2)o1 [Compound A, N-{3-Chloro-4-[(3-fluorobenzyl)oxy]phenyl}-6-[5-({[2-(methanesulphonyl)ethyl]amino}methyl)-2-furyl]-4-quinazolinamine] | 0.149 ± 0.205 µM | > 10 µM | resistant | 4.74 ± 1.08 µM | > 10 µM | 4.11 ± 1.39 µM | induced apoptosis | 7.18 ± 3.93 µM | 4.28 ± 1.35 µM | 5.36 ± 1.55 µM | < 1 µM | 2.41 ± 1.57 µM | 0.138 ± 0.004 µM | 2.64 ± 1.75 µM | > 10 µM | 149 to 7180 nM | 10.5 ± 2.77 µM | 4.28 ± 0.073 µM | > 10 µM | > 10 µM | IC50 [11]: > 10 µM; IC50 [19]: 4.73 ± 1.37 µM; IC50 [22]: 0.146 ± 0.035 µM; sensitivity to cell growth inhibition, in words [23]: resistant; IC50 [24]: 4.48 ± 1.47 µM
CC(=O)Nc1cccc(-n2c(=O)n(C3CC3)c(=O)c3c(Nc4ccc(I)cc4F)n(C)c(=O)c(C)c32)c1 [Compound B, N-{3-[3-cyclopropyl-5-(2-fluoro-4-iodo-phenylamino)-6,8-dimethyl-2,4,7-trioxo-3,4,6,7-tetrahydro-2H-pyrido[4,3-d]pyrimidin-1-yl]phenyl}acetamide] | 0.019 ± 0.005 µM | > 1 µM | sensitive | ≤ 0.003 µM | > 1 µM | 0.07 ± 0.042 µM | not active to induce apoptosis | 0.099 ± 0.053 µM | 0.075 ± 0.039 µM | 0.005 ± 0.004 µM | > 1 µM | > 1 µM | 0.461 ± 0.382 µM | 0.003 ± 0.002 µM | 0.196 ± 0.269 µM | 3 to 99 nM | 0.059 ± 0.03 µM | 0.012 ± 0.003 µM | 0.086 ± 0.007 µM | > 1 µM | IC50 [25]: > 1 µM; IC50 [4]: 0.003 µM; apoptosis induction determined by DNA fragmentation [26]: not active to induce apoptosis; IC50 [27]: > 1 µM; IC50 [28]: > 1 µM; IC50 [29]: > 1 µM; sensitivity to cell growth inhibition, in words [23]: resistant; IC50 [30]: > 1000 nM; IC50 [31]: > 1 µM; IC50 [24]: > 1 µM
